Experimental findings from patent publication US20100216827A1 (Metabolex, Inc., priority 2008, published 2010) are described below.

For assay [1], the system named is C57BL/6J mice. The assay can be described thus: Oral glucose tolerance test (OGTT). It is filed as in vivo. The note with it: 6 h fasted male C57BL/6J mice, 3 g/kg oral glucose, vs vehicle. The protocol:
(§1) 8-10 week old male C57BL/6J mice (Harlan) were maintained on regular chow diet from Harlan (2018 Teklad Global). For the oral glucose tolerance test (OGTT), on the day of the experiment mice were fasted for 6 hours, then randomized into groups (n=10-15) to receive the tested GPR120 agonist at doses ranging from 30 mg/kg to 100 mg/kg or the vehicle (1% CMC, 2% TWEEN 80). For the intra-peritoneal glucose tolerance test (IPGTT), the mice were fasted for overnight, then randomized into groups (n=10-15) to receive the tested GPR120 agonist at doses ranging from 30 mg/kg to 100 mg/kg or the vehicle (1% CMC, 2% TWEEN 80). Compounds were delivered orally via gavage at 10 mL/kg. Blood glucose levels were measured by glucometer (Ascensia Elite XL, Bayer) at time −30 minutes before administration of compound. Blood glucose was measured again after 30 minutes (at time 0), and then the mice were dosed orally with 3 g/kg glucose at 10 mL/kg or were dosed intraperitoneally with 2 g/kg glucose at 10 mL/kg. Blood glucose measurements were taken 20, 40, 60, 90 and 120 minutes after glucose administration, by glucometer (Ascensia Elite XL, Bayer).
Glucose levels were plotted against time, and the incremental area under the curve (AUC) of the glucose excursion was determined from time 0 using Graphpad Prism 5.01. Outliers were excluded using Tukey's box plot outlier test, and statistical significance of differences in AUC of compound treatment compared to vehicle was determined by non-parametric Kruskal-Wallis test with Dunn's post test.
The compounds were tested at 100 mg/kg and the levels of blood glucose were determined in the presence and absence of the tested compounds. The percentage of glucose or intra-peritoneal reduction is reported as a percent reduction in AUC (area under the curve). The tested compound was selected as examples from the exemplified compounds.

Assay [2] has as its system C57BL/6J mice. Briefly: Intra-peritoneal glucose tolerance test (IPGTT). The assay is classed as in vivo. The note with it: 100 mg/kg oral gavage, overnight fasted male C57BL/6J mice, 2 g/kg glucose i.p., vs vehicle. Here is the method: as §1, with “Blood glucose measurements were taken 20, 40, 60, 90 and 120 minutes after glucose administration, by glucometer (Ascensia Elite XL, Bayer).” left out
Glucose levels were plotted against time, and the incremental area under the curve (AUC) of the glucose excursion was determined from time 0 using Graphpad Prism 5.01. Outliers were excluded using Tukey's box plot outlier test, and statistical significance of differences in AUC of compound treatment compared to vehicle was determined by non-parametric Kruskal-Wallis test with Dunn's post test. […]

Another assay has as its target T1, human GPR120 (Homo sapiens, UniProt Q5NUL3).
T1 construct: host or cells: HEK293 cells coexpressing Gqi5
T1 sequence (Q5NUL3 1-361): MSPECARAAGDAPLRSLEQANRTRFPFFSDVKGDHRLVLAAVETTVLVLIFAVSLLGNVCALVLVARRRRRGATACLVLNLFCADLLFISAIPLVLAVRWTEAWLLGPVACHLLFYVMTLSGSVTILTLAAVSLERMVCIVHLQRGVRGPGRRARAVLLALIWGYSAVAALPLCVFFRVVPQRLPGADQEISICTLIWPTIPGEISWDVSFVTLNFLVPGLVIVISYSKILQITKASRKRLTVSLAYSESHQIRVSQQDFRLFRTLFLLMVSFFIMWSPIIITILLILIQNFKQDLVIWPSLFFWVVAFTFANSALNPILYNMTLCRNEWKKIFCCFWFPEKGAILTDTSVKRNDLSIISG
The assay can be described thus: Intracellular Ca2+ (FLIPR Calcium 4, Flexstation) assay in human GPR120 stable HEK293 cell line coexpressing Gqi5. It is filed as cell-based. The procedure, abridged:
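Calcium 4 dye-loaded HEK293 cells expressing N-terminally Flag-tagged human GPR120 with Gqi5 (HBSS/20 mM HEPES, pH 7.4; 50 min, 37 °C). Fluorescence (485/525 nm) read for 90 s after addition of compound at 8 concentrations, 0.00001–20 μM; EC50 from Max−Min change. % activity at 5 μM versus maximal GW9508 response (6.7 μM).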

Regarding `Cc1cc(COc2c(F)cc(C[C@@H](C)C(=O)O)cc2F)n(-c2ccc(Cl)cc2)n1` [Example 43, (R)-3-(4-((1-(4-chlorophenyl)-3-methyl-1H-pyrazol-5-yl)methoxy)-3,5-difluorophenyl)-2-methylpropanoic acid], the “% reduction in OGTT AUC” value in the assay on C57BL/6J mice [1] (30 mg/kg oral gavage) was found to be 20%; in the assay on C57BL/6J mice [1] (100 mg/kg oral gavage), 40%.
In the case of `Cc1cc(COc2c(F)cc(C[C@H](C)C(=O)O)cc2F)n(-c2ccc(Cl)cc2)n1` [Example 44, (S)-3-(4-((1-(4-chlorophenyl)-3-methyl-1H-pyrazol-5-yl)methoxy)-3,5-difluorophenyl)-2-methylpropanoic acid], the “% reduction in OGTT AUC” value in the assay on C57BL/6J mice [1] (30 mg/kg oral gavage) amounted to 33%; in the assay on C57BL/6J mice [1] (100 mg/kg oral gavage) it was 39%.
As a reminder, the EC50 is the midpoint of the concentration-response curve. With `Cc1cc(COc2c(F)cc(CC(C)C(=O)O)cc2F)n(-c2ccc(Cl)cc2)n1` (stereo not drawn) [Example 36, 3-(4-((1-(4-chlorophenyl)-3-methyl-1H-pyrazol-5-yl)methoxy)-3,5-difluorophenyl)-2-methylpropanoic acid], in the assay on C57BL/6J mice [2], the “% reduction in IPGTT AUC” value was 24%. For the same compound, the “% Activity at 5 μM” value on human GPR120 (5 μM compound compared to the maximal activity of GW9508 at 6.7 μM (100%)) stood at 96%. For the same compound, on human GPR120 (human GPR120 stably expressing cells, 8 concentrations 0.00001 to 20 μM, read-out: EC50 ≦ 1 μM), the EC50 is at most 1000 nM. Further, the figures for the “% reduction in OGTT AUC” value in the assay with C57BL/6J mice [1] (30 mg/kg oral gavage) and with C57BL/6J mice [1] (100 mg/kg oral gavage) were 15% and 45.2%, respectively.
